Measured values from publication PMC9322761, “Design, Synthesis and Biological Characterization of Histone Deacetylase 8 (HDAC8) Proteolysis Targeting Chimeras (PROTACs) with Anti-Neuroblastoma Activity” (International Journal of Molecular Sciences, 2022).

Experiments:
HDAC6 = biological target: T1, HDAC6 (Homo sapiens, UniProt Q9UBN7); assay: In vitro HDAC inhibitory activity assay, recombinant HDAC6 (fluorogenic substrate ZMAL); type: biochemical; design: purchased BPS Biosciences
T1 sequence (Q9UBN7 1-1215): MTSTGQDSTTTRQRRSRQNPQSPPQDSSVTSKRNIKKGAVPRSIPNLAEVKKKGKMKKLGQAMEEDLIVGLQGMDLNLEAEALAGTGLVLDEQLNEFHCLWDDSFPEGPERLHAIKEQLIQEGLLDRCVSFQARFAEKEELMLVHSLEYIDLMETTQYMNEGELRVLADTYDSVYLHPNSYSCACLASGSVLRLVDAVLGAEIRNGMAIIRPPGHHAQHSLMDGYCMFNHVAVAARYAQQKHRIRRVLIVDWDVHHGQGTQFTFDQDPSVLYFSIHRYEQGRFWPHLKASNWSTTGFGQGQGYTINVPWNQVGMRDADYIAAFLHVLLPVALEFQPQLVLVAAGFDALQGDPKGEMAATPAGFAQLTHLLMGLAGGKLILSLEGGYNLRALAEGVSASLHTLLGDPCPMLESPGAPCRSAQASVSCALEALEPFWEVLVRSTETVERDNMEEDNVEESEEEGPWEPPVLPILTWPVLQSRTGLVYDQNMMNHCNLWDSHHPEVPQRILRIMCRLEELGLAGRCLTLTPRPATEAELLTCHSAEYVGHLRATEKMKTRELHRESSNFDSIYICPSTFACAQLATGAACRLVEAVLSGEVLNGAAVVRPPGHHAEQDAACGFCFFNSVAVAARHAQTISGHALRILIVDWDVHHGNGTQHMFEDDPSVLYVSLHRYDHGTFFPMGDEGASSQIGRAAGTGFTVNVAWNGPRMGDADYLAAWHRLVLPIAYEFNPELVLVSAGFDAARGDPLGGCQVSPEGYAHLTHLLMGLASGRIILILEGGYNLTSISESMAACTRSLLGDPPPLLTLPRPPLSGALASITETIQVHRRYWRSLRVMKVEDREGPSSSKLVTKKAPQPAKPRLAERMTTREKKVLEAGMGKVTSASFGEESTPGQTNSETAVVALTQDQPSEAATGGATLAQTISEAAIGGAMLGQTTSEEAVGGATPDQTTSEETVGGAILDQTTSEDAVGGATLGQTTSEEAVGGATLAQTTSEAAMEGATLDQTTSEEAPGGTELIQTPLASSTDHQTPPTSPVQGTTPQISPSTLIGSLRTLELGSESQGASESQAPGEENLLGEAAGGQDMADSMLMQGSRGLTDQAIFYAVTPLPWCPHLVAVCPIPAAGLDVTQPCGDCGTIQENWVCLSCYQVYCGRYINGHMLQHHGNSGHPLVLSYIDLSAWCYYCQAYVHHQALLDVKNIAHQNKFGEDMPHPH
Description: The in vitro testing on recombinant HDACs was performed as previously described. Recombinant human HDAC1 and −6 were purchased from BPS Biosciences. The enzyme inhibition was determined by using a reported homogenous fluorescence assay. […] Fluorescence intensity was measured at an excitation wavelength of 390 nm and an emission wavelength of 460 nm in a microtiter plate reader (BMG Polarstar).
Inhibition was measured at increasing concentration and IC50 was calculated by nonlinear regression with Origin 9.0G software.

HDAC8 = biological target: T2, HDAC8 (Homo sapiens, UniProt Q9BY41); assay: HDAC8 degradation in SK-N-BE(2)-C neuroblastoma cells (Western blot); type: cell-based; design: endogenous in cells; host or cells: SK-N-BE(2)-C; settings: SK-N-BE(2)-C cells; for HDAC8 degradation: up to 10 µM, Western blot
T2 sequence (Q9BY41 1-377): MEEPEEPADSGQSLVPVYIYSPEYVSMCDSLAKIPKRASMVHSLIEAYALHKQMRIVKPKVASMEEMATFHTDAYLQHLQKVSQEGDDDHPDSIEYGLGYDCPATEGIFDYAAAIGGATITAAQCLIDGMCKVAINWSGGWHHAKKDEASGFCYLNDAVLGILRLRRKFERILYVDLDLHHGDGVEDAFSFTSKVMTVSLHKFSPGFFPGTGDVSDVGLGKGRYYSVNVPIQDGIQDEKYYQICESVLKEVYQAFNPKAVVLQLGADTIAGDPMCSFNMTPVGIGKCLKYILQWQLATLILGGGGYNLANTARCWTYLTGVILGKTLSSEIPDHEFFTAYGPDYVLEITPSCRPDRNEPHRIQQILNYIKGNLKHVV
Description: Whole cell lysates from treated SK-N-BE(2)-C neuroblastoma cells were taken and the protein levels for HDAC8 and the acetylation of its substrate SMC3 were determined (Figure 6). As a control for HDAC6, we also assessed acetylation levels of α-tubulin. […] Western blot analysis was performed as described previously (Kolbinger et al.).
Figure 6 (A) SK-N-BE(2)-C neuroblastoma cells were treated for indicated time points with 10 µM of PROTACs. Degradation of HDAC8 and acetylation of HDAC8 target was analyzed via Western blot. (B) SK-N-BE(2)-C neuroblastoma cells were treated for 6 h with indicated concentrations of HyT_1p, CRBN_1b and HyT_1m. Acetylation of HDAC8 target SMC3 and HDAC6 target tubulin, as well as total HDAC8 levels, were assessed by Western blot. Quantified ac-SMC3 or ac-tubulin expression, respectively, was normalized to the respective tubulin loading control and to the solvent control (DMSO). This quantification is reflected by the numbers below each blot. […] Total HDAC6, total HDAC1, total HDAC8, and acetyl-histone H4 expression levels, were assessed by Western blot. Total GAPDH protein levels served as a loading control (LC). * unspecific bands obtained through reprobing of the membrane.

COc1ccc(C(=O)NO)cc1NC(=O)c1ccc(NC(=O)CCCCCCCNc2cccc3c2C(=O)N(C2CCC(=O)NC2=O)C3=O)cc1 (centres unmarked) [CRBN_1b] was tested, and the IC50 (HDAC6) was 560 ± 100 nM, the “Remaining HDAC8 protein” value (HDAC8; 6 h, 10 µM) was 40% and the “HDAC8 degradation” value (HDAC8) was “strong HDAC8 degradation”.

COC(=O)c1ccc(C)c(NCc2ccc(OCc3cn(CCCCCC(=O)Nc4cccc5c4C(=O)N(C4CCC(=O)NC4=O)C5=O)nn3)cc2)c1 (centres unmarked) [33a] was tested, and the “HDAC6 inhibitory activity” value (HDAC6; negative control) was “did not demonstrate a strong inhibitory activity” and the “HDAC8 degradation” value (HDAC8) was “did not show hyperacetylation of SMC3 or HDAC8 degradation”.

With O=C(COc1ccc(CNc2cc(C(=O)NO)ccc2Cl)cc1)NCCCCCNC(=O)CC12CC3CC(CC(C3)C1)C2 [HyT_1p] the inhibition at 1 µM (HDAC6; 1 µM, read-out: HDAC6 % inhib. at given conc.) was 12.4%, the inhibition at 10 µM (HDAC6; 10 µM, read-out: HDAC6 % inhib. at given conc.) was 72.8% and the “HDAC8 degradation” value (HDAC8) was “failed to degrade HDAC8”.
